Test results as given in paper PMC8433439, “Bivalent ligands promote endosomal trafficking of the dopamine D3 receptor-neurotensin receptor 1 heterodimer” (Communications Biology, 2021).
“Also recorded” adds a separate entry of the source.

Key:
[1] = molecular target: T1, D3R (Homo sapiens, UniProt P35462); assay: IPOne accumulation, D3R-mediated G protein activation, HEK293T cells with D3R and Gqprom; format: cell-based; design: host or cells: HEK293T, transient; conditions: compared to the reference agonist quinpirole
Experimental: Supplementary Figure 7 . Activation of D3R in transiently transfected HEK293T cells. D3R-mediated activation of G proteins was measured by stimulation of HEK293T cells transiently transfected with D3R and a promiscuous Gq protein (Gqprom). Subsequent f ormation of IP3 as second messenger of the Gq signaling pathway was determined employing the IPOne assay (CisBio). […]
TransIT293 in a DNA to reagent ratio of 1 : 3. After 24h, cells were detached using Versene […]
Germany) and additionally cultivated f or 24 h at 37°C, 5% CO 2. After replacement of the medium with 10 µL stimulation buffer (CisBio, Codolet, France), 5 µL of the test compounds dissolved in stimulation buffer were added. After 90 min at 37°C, 5 µL of IP1 reagent mix and 5 µ L of AB r eag ent mix in lysis buff er (CisBio) were added, f ollowed by a 60 min incubation at room temperature under light exclusion. The FRET ratio was determined using a CLARIOstar microplate reader with a f ilter […]
A sigmoid curve was fitted using the algorithms for three-parameter non-linear regression provided by GraphPad Pr ism 6.0 and the data were normalized to […]

[2] = molecular target: T1, D3R; assay: Radioligand competition/saturation binding with [3H]spiperone, membranes of HEK293T cells monoexpressing D3R; conditions: read-out: % Specific binding [³H]Spiperone, D3R; for remaining activity at 0.001 µM: log concentration -9.00; for remaining activity at 0.0001 µM: log concentration -10.00; for remaining activity at 1 pM: log concentration -12.00
Experimental: (§1) Affinities of the bivalent ligands were determined by radio-ligand displacement in analogy to previously described protocols[76]. […] Competition binding experiments were carried out using a protein concentration of 4–18 µg protein per well for the coexpression systems and 1–12 µg per well for the monoexpression system in a total volume of 200 µL. […] All binding experiments were carried out at 37 °C in binding buffer consisting of 50 mM Tris pH 7.4, 5 nM MgCl2, 1 mM EDTA, 100 µg ∙ mL^−1 bacitracin and 100 µg ∙ mL^−1 soybean trypsin inhibitor. Data were normalised to non-specific and total binding and analysed employing one- or two-site competition binding algorithms implemented in GraphPad Prism for windows, version 6.0 (GraphPad Software, San Diego California, USA, www.graphpad.com).

[3] = molecular target: T2, D3R-Rluc (Homo sapiens, UniProt P35462); assay: Bystander BRET internalisation (rGFP-CAAX / rGFP-FYVE), monoexpressed D3R-Rluc; format: cell-based; conditions: 1 µM quinpirole or 10 nM bivalent ligand
T2 construct: 24-aa linker […]; expressed in transfected cells; host or cells: HEK293SL or Δβ-arrestin-HEK, transient
Experimental: HEK293SL cells[71] or Δβ-arrestin-HEK[49] were detached with Trypsin/EDTA (Wisent Inc., St-Bruno, QC, Canada) and 350,000 cells were transiently transfected in suspension using polyethyleneimine. 5 ng of NTSR1-Rluc or 400 ng of D3R-Rluc8 were either mono-or cotransfected with 600 ng of untagged D3R or 5 ng NTSR1, respectively, along with 300 ng rGFP-CAAX or 300 ng rGFP-FYVE and ssDNA to a total of 1 µg DNA. Cells were seeded in white poly-L-ornithine (Sigma Aldrich) coated 96-well plates (Greiner Bio one) at a density of 35,000 cells per well. 48 hours after transfection, cells were washed once with PBS and serum starved for 30–45 min in Tyrode’s Buffer at 37 °C, 5% CO2. Coelenterazine-h was added in a final concentration of 3 µM and cells were further incubated at 37 °C, 5% CO2. After 3 min, ligands were added and cells were stimulated for 30 min, 37 °C, 5% CO2 before determining the BRETratio using a Mithras LB940 multimode microplate reader with 480-20 nm (donor) and 530-20 nm (acceptor) filters. […] Ligand-induced effects were monitored by calculation of ΔBRET, which was determined as the difference in BRETratio between the ligand-treated conditions and vehicle-treated controls. Data were analysed by three-parameter sigmoid or bell-shaped nonlinear regression using the algorithms provided by GraphPad Prism 6.0.

[4] = molecular target: T1, D3R; assay: Surface ELISA, monoexpressed Flag-D3R; format: cell-based; design: host or cells: HEK293T, transient; conditions: 1 µM quinpirole, 1 µM NT(8-13) or 10 nM 1d, 30 min
Experimental: β-arrestin 2 recruitment (bystander BRET)6
HEK293SL cells were diluted to a density of 350 ,000 cells ∙ mL-1 and transiently transfected using
to a total DNA amount of 1 µg . 35,000 cells were plated in a 96-well plate coated with poly L- ornithine
and cultivated f or 48 h at 37°C, 5% CO2. On the day of the experiment, the cell medium was aspirated
and each well was washed once with PBS and serum starved f or 30-45 min. A Deep Blue C dilution
ligand dilution in Tyrode’s buffer was added. After additional stimulation for 5 min at 37°C, 5% CO2,
BRET2 was determined using a Mithras LB940 multimode microplate reader with 400- 70 nm (donor)
Obtained BRETratios were normalized to vehicle
non- linear regression employing the models implemented in GraphPad Prism 6.

[5] = molecular target: T1, D3R; assay: biochemical
Experimental: as §1

T1 sequence (P35462 whole entry): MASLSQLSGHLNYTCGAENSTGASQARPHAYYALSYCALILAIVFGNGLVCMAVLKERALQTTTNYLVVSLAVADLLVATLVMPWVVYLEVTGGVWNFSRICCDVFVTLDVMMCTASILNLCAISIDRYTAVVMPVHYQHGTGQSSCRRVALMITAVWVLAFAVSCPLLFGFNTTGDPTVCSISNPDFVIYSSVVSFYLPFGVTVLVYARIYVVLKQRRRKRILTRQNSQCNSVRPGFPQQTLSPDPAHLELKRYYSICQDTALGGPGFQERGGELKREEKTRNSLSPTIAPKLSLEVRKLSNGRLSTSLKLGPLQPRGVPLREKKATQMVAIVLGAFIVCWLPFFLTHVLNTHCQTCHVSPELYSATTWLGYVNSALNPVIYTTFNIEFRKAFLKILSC
T2 sequence (P35462 whole entry): as above

## CCCN(CCCCc1cn(-c2ccc(-c3ccc(C(=O)NCCOCCOCCOCCOCCOCCOCCC(=O)N[C@@H](CCCNC(=N)N)C(=O)N[C@@H](CCCNC(=N)N)C(=O)N4CCC[C@H]4C(=O)N[C@@H](Cc4ccc(O)cc4)C(=O)N[C@H](C(=O)N[C@@H](CC(C)C)C(=O)O)[C@@H](C)CC)cc3)cc2)nn1)C1Cc2ccccc2C1 [1a]
[1]
  D3R-mediated activation of G proteins: full D3R agonists
[2]
  remaining activity at 0.001 µM: 48.9%
  remaining activity at 0.0001 µM: 74.5%
  remaining activity at 1 pM: 88.8%

## CCCN(CCCCc1cn(-c2ccc(-c3ccc(C(=O)NCCOCCOCCOCCOCCOCCOCCC(=O)NCCOCCOCCOCCOCCOCCOCCC(=O)NCCOCCOCCOCCOCCOCCOCCC(=O)NCCOCCOCCOCCOCCOCCOCCC(=O)N[C@@H](CCCNC(=N)N)C(=O)N[C@@H](CCCNC(=N)N)C(=O)N4CCC[C@H]4C(=O)N[C@@H](Cc4ccc(O)cc4)C(=O)N[C@H](C(=O)N[C@@H](CC(C)C)C(=O)O)[C@@H](C)CC)cc3)cc2)nn1)C1Cc2ccccc2C1 [1d]
[3]
  internalisation of monoexpressed D3R-Rluc: could not detect internalisation
[4]
  surface expression of monoexpressed D3R: unchanged; also recorded: did not lead to apparent changes in surface expression
[1]
  D3R-mediated activation of G proteins: full D3R agonists
[2]; log concentration -6.52
  remaining activity at 0.302 µM: -0.137%
[2]; log concentration -7.52
  remaining activity at 0.0302 µM: 12.6%
[2]; log concentration -8.52
  remaining activity at 0.00302 µM: 46.4%
[2]; log concentration -9.52
  remaining activity at 0.000302 µM: 92.1%
[2]
  remaining activity at 0.0001 µM: 92.1%
  remaining activity at 1 pM: 103%
[2]; log concentration -10.52
  remaining activity at 30.2 pM: 96.8%

## CC[C@H](C)[C@H](NC(=O)[C@H](Cc1ccc(O)cc1)NC(=O)[C@@H]1CCCN1C(=O)[C@H](CCCNC(=N)N)NC(=O)[C@H](CCCNC(=N)N)NC(=O)CCOCCOCCOCCOCCOCCOCCNC(=O)c1ccc(-c2ccc(-n3cc(CCCCN4CCN(c5ccccc5OC)CC4)nn3)cc2)cc1)C(=O)N[C@@H](CC(C)C)C(=O)O [2a]
[5]
  Ki: 4.4 nM
[1]
  D3R-mediated activation of G proteins: weak partial agonist or antagonist-like behavior
[2]; log concentration -8.00
  remaining activity at 0.01 µM: 44.3%
[2]
  remaining activity at 0.001 µM: 75%
  remaining activity at 0.0001 µM: 90%
  remaining activity at 1 pM: 102%
[2]; log concentration -11.00
  remaining activity at 10 pM: 92%

## CC[C@H](C)[C@H](NC(=O)[C@H](Cc1ccc(O)cc1)NC(=O)[C@@H]1CCCN1C(=O)[C@H](CCCNC(=N)N)NC(=O)[C@H](CCCNC(=N)N)NC(=O)CCOCCOCCOCCOCCOCCOCCNC(=O)CCOCCOCCOCCOCCOCCOCCNC(=O)CCOCCOCCOCCOCCOCCOCCNC(=O)CCOCCOCCOCCOCCOCCOCCNC(=O)c1ccc(-c2ccc(-n3cc(CCCCN4CCN(c5ccccc5OC)CC4)nn3)cc2)cc1)C(=O)N[C@@H](CC(C)C)C(=O)O [2d]
[3]
  internalisation of monoexpressed D3R-Rluc: could not detect internalisation
[1]
  D3R-mediated activation of G proteins: weak partial agonist or antagonist-like behavior
[2]
  remaining activity at 1 pM: 94.4%
